Data reported in patent US20220162191A1, “SMALL MOLECULE MODULATORS OF IL-17” (LEO PHARMA A/S, priority 2019, published 2022).

What follows are compounds tested against T1, human IL-17AA (Homo sapiens, UniProt Q16552) (assay: IL-8 release assay in human epithelial keratinocytes adult (HEKa)). Settings: 3 ng/ml human IL-17AA + 10 ng/ml human TNFalpha, 68-72 h, IL-8 by HTRF, read-out: Rel EC50 L-8 release assay.
T1 construct: host or cells: HEK (human embryonic kidney) cells
T1 sequence (Q16552 24-155) 1: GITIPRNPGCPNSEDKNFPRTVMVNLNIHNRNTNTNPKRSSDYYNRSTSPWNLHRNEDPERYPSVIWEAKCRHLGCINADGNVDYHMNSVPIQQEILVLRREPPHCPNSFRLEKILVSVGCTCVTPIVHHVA
T1 sequence (Q16552 24-155) 2: T1 sequence (Q16552 24-155) 1
Format: cell-based
Outline: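 Adult human keratinocytes in Epilife with HKGS minus hydrocortisone, treated with compound then stimulated with final 3 ng/ml HEK-derived human IL-17AA plus 10 ng/ml TNF-alpha for 68–72 h at 37 °C; TNF-alpha alone defines 100% inhibition. Secreted IL-8 by HTRF; relative IC50 and Emax from four-parameter fits.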

Structure (SMILES) | EC50 [nM]
Cc1cnn(C)c1-c1ccc(NC(=O)[C@H](Cc2cc(-c3ccc(=O)n(C(C)C)c3)ccc2Cl)NC(=O)C2CC2)cc1 [Example 329, N-[(1S)-1-[[2-chloro-5-(1-isopropyl-6-oxo-3-pyridyl)phenyl]methyl]-2-[4-(2,4-dimethylpyrazol-3-yl)anilino]-2-oxo-ethyl]cyclopropanecarboxamide] | 100 to 1000
CCCC(=O)N[C@@H](Cc1cc(-c2ccc(=O)n(C(C)C)c2)ccc1Cl)C(=O)Nc1ccc(-c2c(C)cnn2C)cc1 [Example 330, N-[(1S)-1-[[2-chloro-5-(1-isopropyl-6-oxo-3-pyridyl)phenyl]methyl]-2-[4-(2,4-dimethylpyrazol-3-yl)anilino]-2-oxo-ethyl]butanamide] | 100 to 1000
Cc1cnn(C)c1-c1ccc(NC(=O)[C@H](Cc2cc(-c3ccc(=O)n(C(C)C)c3)ccc2Cl)NC(=O)C2(F)CCC2)cc1 [Example 331, N-[(1S)-1-[[2-chloro-5-(1-isopropyl-6-oxo-3-pyridyl)phenyl]methyl]-2-[4-(2,4-dimethylpyrazol-3-yl)anilino]-2-oxo-ethyl]-1-fluoro-cyclobutanecarboxamide] | < 100
Cc1cnn(C)c1-c1ccc(NC(=O)[C@H](Cc2cc(-c3ccc(=O)n(C(C)C)c3)ccc2Cl)NC(=O)C(C)C2CC2)cc1 (stereo partly drawn) [Example 332, (2S)-3-[2-chloro-5-(1-isopropyl-6-oxo-3-pyridyl)phenyl]-2-(2-cyclopropylpropanoylamino)-[4-(2,4-dimethylpyrazol-3-yl)phenyl]propanamide] | > 1000
Cc1cnn(C)c1-c1ccc(NC(=O)[C@H](Cc2cc(-c3ccc(=O)n(C(C)C)c3)ccc2Cl)NC(=O)c2cocn2)cc1 [Example 333, N-[(1S)-1-[[2-chloro-5-(1-isopropyl-6-oxo-3-pyridyl)phenyl]methyl]-2-[4-(2,4-dimethylpyrazol-3-yl)anilino]-2-oxo-ethyl]oxazole-4-carboxamide] | > 1000
Cc1cnn(C)c1-c1ccc(NC(=O)[C@H](Cc2cc(-c3ccc(=O)n(C(C)C)c3)ccc2Cl)NC(=O)C2(C)CC2)cc1 [Example 334, N-[(1S)-1-[[2-chloro-5-(1-isopropyl-6-oxo-3-pyridyl)phenyl]methyl]-2-[4-(2,4-dimethylpyrazol-3-yl)anilino]-2-oxo-ethyl]-1-methyl-cyclopropanecarboxamide] | 100 to 1000
Cc1cnn(C)c1-c1ccc(NC(=O)[C@H](Cc2cc(-c3ccc(=O)n(C(C)C)c3)ccc2Cl)NC(=O)CC2CCC2)cc1 [Example 335, (2S)-3-[2-chloro-5-(1-isopropyl-6-oxo-3-pyridyl)phenyl]-2-[(2-cyclobutylacetyl)amino]-N-[4-(2,4-dimethylpyrazol-3-yl)phenyl]propanamide] | 100 to 1000
Cc1cnn(C)c1-c1ccc(NC(=O)[C@H](Cc2cc(-c3ccc(=O)n(C(C)C)c3)ccc2Cl)NC(=O)CC2CC2)cc1 [Example 336, (2S)-3-[2-chloro-5-(1-isopropyl-6-oxo-3-pyridyl)phenyl]-2-[(2-cyclopropylacetyl)amino]-N-[4-(2,4-dimethylpyrazol-3-yl)phenyl]propanamide] | 100 to 1000
Cc1cnn(C)c1-c1ccc(NC(=O)[C@H](Cc2cc(-c3ccc(=O)n(C(C)C)c3)ccc2Cl)NC(=O)c2ccon2)cc1 [Example 337, N-[(1S)-1-[[2-chloro-5-(1-isopropyl-6-oxo-3-pyridyl)phenyl]methyl]-2-[4-(2,4-dimethylpyrazol-3-yl)anilino]-2-oxo-ethyl]isoxazole-3-carboxamide] | 100 to 1000
Cc1n[nH]c(C)c1-c1ccc(NC(=O)[C@H](NC(=O)C2(F)CC2)[C@H](C)c2cccc(-c3ccnc(N4C[C@@H]5C[C@H]4CO5)c3)c2)cc1 [Example 340, N-[(1R,2R)-1-[[4-(3,5-dimethyl-1H-pyrazol-4-yl)phenyl]carbamoyl]-2-[3-[2-[(1S,4S)-2-oxa-5-azabicyclo[2.2.1]heptan-5-yl]-4-pyridyl]phenyl]propyl]-1-fluoro-cyclopropanecarboxamide] | 100 to 1000
Cc1n[nH]c(C)c1-c1ccc(NC(=O)[C@@H](NC(=O)C2(F)CC2)[C@H](C)c2cccc(-c3ccnc(N4C[C@@H]5C[C@H]4CO5)c3)c2)cc1 [Example 341, N-[(1S,2R)-1-[[4-(3,5-dimethyl-1H-pyrazol-4-yl)phenyl]carbamoyl]-2-[3-[2-[(1S,4S)-2-oxa-5-azabicyclo[2.2.1]heptan-5-yl]-4-pyridyl]phenyl]propyl]-1-fluoro-cyclopropanecarboxamide] | < 100
Cc1cnn(C)c1-c1ccc(NC(=O)[C@@H](NC(=O)C2(F)CC2)[C@H](C)c2cccc(-c3cc(N4C[C@@H]5C[C@H]4CO5)ncn3)c2)cc1 [Example 342, N-[(1S,2R)-1-[[4-(2,4-dimethylpyrazol-3-yl)phenyl]carbamoyl]-2-[3-[6-[(1S,4S)-2-oxa-5-azabicyclo[2.2.1]heptan-5-yl]pyrimidin-4-yl]phenyl]propyl]-1-fluoro-cyclopropanecarboxamide] | > 1000
Cc1cnn(C)c1-c1ccc(NC(=O)[C@@H](NC(=O)C2(F)CC2)[C@H](C)c2cccc(-c3cncc(N4C[C@@H]5C[C@H]4CO5)n3)c2)cc1 [Example 343, N-[(1S,2R)-1-[[4-(2,4-dimethylpyrazol-3-yl)phenyl]carbamoyl]-2-[3-[6-[(1S,4S)-2-oxa-5-azabicyclo[2.2.1]heptan-5-yl]pyrazin-2-yl]phenyl]propyl]-1-fluoro-cyclopropanecarboxamide] | 100 to 1000
Cc1cnn(C)c1-c1ccc(NC(=O)[C@@H](NC(=O)OC(C)(C)C)[C@@H](c2cccc(-c3ccnc(N4C[C@@H]5C[C@H]4CO5)c3)c2)C2CC2)cc1 [Example 346, tert-butyl N-[(1S)-1-[(R)-cyclopropyl-[3-[2-[(1S,4S)-2-oxa-5-azabicyclo[2.2.1]heptan-5-yl]-4-pyridyl]phenyl]methyl]-2-[4-(2,4-dimethylpyrazol-3-yl)anilino]-2-oxo-ethyl]carbamate] | < 100
Cc1cnn(C)c1-c1ccc(NC(=O)[C@@H](NC(=O)C2(F)CC2)[C@@H](c2cccc(-c3cncc(N4C[C@@H]5C[C@H]4CO5)c3)c2)C2CC2)cc1 [Example 347, N-[(1S)-1-[(R)-cyclopropyl-[3-[5-[(1S,4S)-2-oxa-5-azabicyclo[2.2.1]heptan-5-yl]-3-pyridyl]phenyl]methyl]-2-[4-(2,4-dimethylpyrazol-3-yl)anilino]-2-oxo-ethyl]-1-fluoro-cyclopropanecarboxamide] | < 100
Cc1cnn(C)c1-c1ccc(NC(=O)[C@@H](NC(=O)c2ccnn2C)[C@@H](c2cccc(-c3cncc(N4C[C@@H]5C[C@H]4CO5)c3)c2)C2CC2)cc1 [Example 348, N-[(1S)-1-[(R)-cyclopropyl-[3-[5-[(1S,4S)-2-oxa-5-azabicyclo[2.2.1]heptan-5-yl]-3-pyridyl]phenyl]methyl]-2-[4-(2,4-dimethylpyrazol-3-yl)anilino]-2-oxo-ethyl]-2-methyl-pyrazole-3-carboxamide] | < 100
Cc1cnn(C)c1-c1ccc(NC(=O)[C@@H](NC(=O)c2ccnn2C)[C@@H](c2cccc(-c3cncc(N4C[C@@H]5C[C@H]4CO5)n3)c2)C2CC2)cc1 [Example 349, N-[(1S)-1-[(R)-cyclopropyl-[3-[6-[(1S,4S)-2-oxa-5-azabicyclo[2.2.1]heptan-5-yl]pyrazin-2-yl]phenyl]methyl]-2-[4-(2,4-dimethylpyrazol-3-yl)anilino]-2-oxo-ethyl]-2-methyl-pyrazole-3-carboxamide] | < 100
